Results from patent publication US20080031912A1, “METHOD FOR CONTROLLING CELL MIGRATION ON A SURFACE” (THE REGENTS OF THE UNIVERSITY OF CALIFORNIA, priority 2006, published 2008).

Key:
[1] = system: NIH 3T3 cells; test: Cell migration onto coated half of tissue culture dish; type: cell-based; conditions: right half of dish coated with 1 μg/cm^2 of each protein; cells seeded on uncoated half, 7 days
Method: (§1) Cell Culture. NIH 3T3 cells were cultured in DMEM supplemented with 10% calf serum, 1% sodium pyruvate, 1% L-glutamine, 1% penicillin/streptomycin, and maintained in a humidified 5% CO2/95% air incubator at 37° C. Wildtype and pik3R2^−/− MEF cell lines were maintained in DMEM supplemented with 15% FBS and 1% penicillin/streptomycin, and maintained in a humidified 5% CO2, 95% air incubator at 37° C.
(§2) Imaging. NIH 3T3 cells were maintained in complete media (described above) for all experiments. Imaging was done on a Nikon Diaphot 300 inverted microscope with a Hamamatsu Orca ER digital camera controlled by IP lab software (Scanalytics). Images were captured under 10× and 20× phase-contrast microscopy. The cells were under temperature and gas control throughout the duration of the experiments (5% CO2, 95% air, 37° C.). MEF cells were maintained in complete media for all experiments. Imaging was done on a Nikon Diaphot 300 inverted microscope with a Hamamatsu Orca ER digital camera controlled by IP lab, or Metamorph imaging software. Images were captured under 20× and 40× differential interference microscopy (DIC), or fluorescence microscopy. The cells were under temperature and gas control throughout the duration of live cell imaging experiments (5% CO2, 95% air, 37° C.). […]

[2] = system: NIH 3T3 cells; test: Cell spreading on coated tissue culture dishes (time-lapse microscopy); type: cell-based; conditions: surface coated with 1 μg/cm2; observed over 8 hours (3, 6, 8 hours post-plating)
Method: as §1, §2

## fibronectin [FN]
[1]
  cell migration onto coated surface: robust migration
[2]
  cell spreading on coated surface: spread efficiently
